Measurements published in paper PMC3761409 (Journal of molecular recognition : JMR, 2013).
No end group written: not given here.

B1: full-length Bad: full-length Bad protein (Bcl2-associated death promoter) (protein, UniProt Q92934 1-168, looked up)
chain: MFQIPEFEPSEQEDSSSAERGLGPSPAGDGPSGSGKHHRQAPGLLWDASHQQEQPTSSSHHGGAGAVEIRSRHSSYPAGTEDDEGMGEEPSPFRGRSRSAPPNLWAAQRYGRELRRMSDEFVDSFKKGLPRPKSAGTATQMRQSSSWTRVFQSWWDRNLGRGSSAPSQ
modifications: full-length

Tests used:
[1] = molecular target: T1, Human Bcl2 (residues 1-205) (Homo sapiens, UniProt P10415); assay: Isothermal titration calorimetry; type: binding; settings: for Kd: SD
[2] = molecular target: T1, Human Bcl2 (residues 1-205); assay: ITC: effect of NaCl concentration on binding; settings: Sodium phosphate buffer, NaCl 0-500mM, 25°C, pH 7
[3] = molecular target: Bcl2 (Homo sapiens, UniProt P10415); assay: In vitro binding of full-length Bad to Bcl2; settings: unpublished observations
[4] = molecular target: BclXL (Homo sapiens, UniProt Q07817); assay: In vitro binding of full-length Bad to BclXL; settings: unpublished observations
BclXL, sequence (Q07817 whole entry, species assumed): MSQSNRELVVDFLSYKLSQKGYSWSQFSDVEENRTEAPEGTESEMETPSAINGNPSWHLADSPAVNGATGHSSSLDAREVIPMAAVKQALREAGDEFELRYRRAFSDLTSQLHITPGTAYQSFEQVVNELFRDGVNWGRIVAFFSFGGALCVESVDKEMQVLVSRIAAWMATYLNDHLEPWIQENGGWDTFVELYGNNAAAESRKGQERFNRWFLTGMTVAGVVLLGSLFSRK

T1 sequence (P10415 1-205): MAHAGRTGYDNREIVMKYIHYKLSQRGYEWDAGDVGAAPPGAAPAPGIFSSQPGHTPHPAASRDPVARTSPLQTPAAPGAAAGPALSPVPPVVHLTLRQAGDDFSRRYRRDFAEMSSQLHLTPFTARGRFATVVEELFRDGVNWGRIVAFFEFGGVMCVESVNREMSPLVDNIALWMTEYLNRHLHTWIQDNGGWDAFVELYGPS
Bcl2, sequence (P10415 whole entry): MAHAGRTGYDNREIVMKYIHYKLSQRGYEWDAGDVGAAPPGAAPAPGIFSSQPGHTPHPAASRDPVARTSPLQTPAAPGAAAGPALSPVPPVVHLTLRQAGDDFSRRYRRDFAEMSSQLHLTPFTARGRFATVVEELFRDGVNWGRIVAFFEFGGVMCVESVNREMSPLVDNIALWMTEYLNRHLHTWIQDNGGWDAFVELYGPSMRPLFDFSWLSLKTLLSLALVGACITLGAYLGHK

Molecule	Kd [1] [nM]	effect of increasing NaCl concentration on the binding (Kd) to Bcl2 [2]	binding to Bcl2 under varied conditions ([1]; ITC, temperature, buffer or solution pH varied)	affinity of the full-length protein toward Bcl2 [3]	affinity of the full-length protein toward BclXL [4]
CC(C)C[C@H](NC(=O)[C@H](C)NC(=O)[C@H](CCCCN)NC(=O)[C@H](CC(C)C)NC(=O)[C@H](CCCNC(=N)N)NC(=O)[C@H](C)NC(=O)[C@H](C)NC(=O)[C@@H](NC(=O)[C@H](CC(C)C)NC(=O)[C@H](CCC(N)=O)NC(=O)[C@H](C)NC(=O)[C@H](C)NC(=O)[C@@H](N)CO)[C@@H](C)O)C(=O)NCC(=O)N[C@@H](CC(=O)O)C(=O)N[C@@H](CCC(=O)O)C(=O)N[C@@H](CC(C)C)C(=O)N[C@@H](Cc1c[nH]cn1)C(=O)N[C@@H](CCC(N)=O)C(=O)N[C@@H](CCCNC(=N)N)C(=O)O [Hrk]	25000 ± 8800	enhancement of between two-to-five folds			
QWAREIGAQLRRMGDDLNAQ [Puma_A+4G]	2120 ± 420				
ELEVECATQLRRFGDKLNFR [Noxa]			did not observe the binding		
DIIRNIARHLAQVGDSMDRS [Bid]	2100 ± 410	largely independent of salt concentration			
QWAREIGAQLRRMADDLNAQ [Puma]	370 ± 70	little or negligible effect			
CC[C@H](C)[C@H](NC(=O)[C@H](C)NC(=O)[C@H](CC(C)C)NC(=O)[C@H](CCC(N)=O)NC(=O)[C@H](CCCNC(=N)N)NC(=O)CNC(=O)[C@@H](NC(=O)[C@H](CCC(N)=O)NC(=O)CNC(=O)[C@H](CCSC)NC(=O)[C@@H](NC(=O)[C@@H](N)CO)[C@@H](C)O)C(C)C)C(=O)N[C@H](C(=O)NCC(=O)N[C@@H](CC(=O)O)C(=O)N[C@@H](CC(=O)O)C(=O)N[C@H](C(=O)N[C@@H](CC(N)=O)C(=O)N[C@@H](CCCNC(=N)N)C(=O)N[C@@H](CCCNC(=N)N)C(=O)O)[C@@H](C)CC)[C@@H](C)CC [Bak]	1300 ± 250	largely independent of salt concentration			
QAEVQIARKLQCIADQFHRL [Bmf]	300 ± 70	little or negligible effect			
SAAQLTAARLKALADELHQR [Hrk_G+4A]	3840 ± 710				
WAAQRYGRELRRMSDEFVDS [Bad]	4140 ± 800	enhancement of between two-to-five folds			
EGSDALALRLACIGDEMDVS [Bik]	3780 ± 790	enhancement of between two-to-five folds			
ASTKKLSESLKRIGDELDSN [Bax]	3100 ± 660	enhancement of between two-to-five folds			
B1				poor affinity	poor affinity
